In ChEMBL document CHEMBL1121841, “Toxicity quantitative structure--activity relationships of colchicines” (J Med Chem, 1981):

Key:
Mus musculus [1] = assay: Percent increase in life-span against in vivo P388 murine leukemia at a dose 0.78 mg/kg in trail 2; format: functional
Mus musculus [2] = assay: Percent increase in life-span against in vivo P388 murine leukemia at a dose 1.56 mg/kg in trail 1; format: functional
Mus musculus [3] = assay: Percent increase in life-span against in vivo P388 murine leukemia at a dose 1.56 mg/kg in trail 2; format: functional
Mus musculus [4] = assay: Percent increase in life-span against in vivo P388 murine leukemia at a dose 12.5 mg/kg in trail 2; format: functional
Mus musculus [5] = assay: Percent increase in life-span against in vivo P388 murine leukemia at a dose 3.12 mg/kg in trail 1; format: functional
Mus musculus [6] = assay: Percent increase in life-span against in vivo P388 murine leukemia at a dose 3.12 mg/kg in trail 2; format: functional
Mus musculus [7] = assay: Percent increase in life-span against in vivo P388 murine leukemia at a dose 6.25 mg/kg in trail 1; format: functional
Mus musculus [8] = assay: Percent increase in life-span against in vivo P388 murine leukemia at a dose 6.25 mg/kg in trail 2; format: functional
Mus musculus [9] = assay: Percent increase in life-span against in vivo P388 murine leukemia at a dose 0.78 mg/kg in trail 1; format: functional
Mus musculus [10] = assay: Percent increase in life-span against in vivo P388 murine leukemia at a dose 0.39 mg/kg in trail 2; format: functional
Mus musculus [11] = assay: Percent increase in life-span against in vivo P388 murine leukemia at a dose 0.39 mg/kg) in trail 1; format: functional
Mus musculus [12] = organism: Mus musculus; settings: in vivo
Description: Logarithm of toxic activity (1/lethal dose) in mice bearing P388 leukemia on chronic regimen (Q 1-9)

physchem = settings: octanol/water
Description: Partition coefficient (logP)

[13] = Compound was tested for toxicity in P388 tumored mice; format: organism-based; settings: mouse, in vivo
[14] = Compound was tested for toxicity in non tumored mice; format: organism-based; settings: mouse, in vivo
Mus musculus [15] = assay: Percent increase in life-span against in vivo P388 murine leukemia at a dose 0.06 mg/kg in trail 1; format: functional
Mus musculus [16] = assay: Percent increase in life-span against in vivo P388 murine leukemia at a dose 0.06 mg/kg in trail 2; format: functional
Mus musculus [17] = assay: Percent increase in life-span against in vivo P388 murine leukemia at a dose 0.12 mg/kg in trail 1; format: functional
Mus musculus [18] = assay: Percent increase in life-span against in vivo P388 murine leukemia at a dose 0.12 mg/kg in trail 2; format: functional
Mus musculus [19] = assay: Percent increase in life-span against in vivo P388 murine leukemia at a dose 0.25 mg/kg in trail 1; format: functional
Mus musculus [20] = assay: Percent increase in life-span against in vivo P388 murine leukemia at a dose 0.25 mg/kg in trail 2; format: functional
Mus musculus [21] = assay: Percent increase in life-span against in vivo P388 murine leukemia at a dose 0.5 mg/kg in trail 1; format: functional
Mus musculus [22] = assay: Percent increase in life-span against in vivo P388 murine leukemia at a dose 0.5 mg/kg in trail 2; format: functional

Row | Compound | Log 1/LD50 (Mus musculus [12]) | LD50 [13] [mg/kg] | LD50 [14] [mg/kg] | also measured
1 | COc1c(C=O)c2c(c(OC)c1OC)-c1ccc(OC)c(=O)cc1[C@@H](NC(C)=O)CC2 | 4.14 |  |  | ILS at 0.78 mg/kg (Mus musculus [1]): 49%; ILS at 1.56 mg/kg (Mus musculus [2]): 60%; ILS at 1.56 mg/kg (Mus musculus [3]): 75%; ILS at 12.5 mg/kg (Mus musculus [4]): 2%; ILS at 3.12 mg/kg (Mus musculus [5]): 94%; ILS at 3.12 mg/kg (Mus musculus [6]): 80%; ILS at 6.25 mg/kg (Mus musculus [7]): 105%; ILS at 6.25 mg/kg (Mus musculus [8]): 105%; ILS at 0.78 mg/kg (Mus musculus [9]): 54%; ILS at 0.39 mg/kg (Mus musculus [10]): 49%; ILS at 0.39 mg/kg (Mus musculus [11]): 51%; logP (physchem): 5.92
2 | COC1=C2C(=CC(=O)C1OC)CC[C@H](NC(C)=O)c1cc(=O)c(OC)ccc12 (some centres undefined) | 5.82 |  |  | logP (physchem): 0.93
3 | COc1c(C#N)c2c(c(OC)c1OC)-c1ccc(OC)c(=O)cc1[C@@H](NC(C)=O)CC2 | 3.8 |  |  | logP (physchem): 4.46
4 | CCOC(=O)N[C@H]1CCc2cc(OC)c(OC)c(OC)c2-c2ccc(SC)c(=O)cc21 | 4.19 |  |  | 
5 | COc1cc2c(c(OC)c1OC)-c1ccc(SC)c(=O)cc1[C@@H](NC(=O)C(F)(F)F)CC2 | 5.51 | 1.4 | 3.5 | 
6 | COc1cc2c(c(OC)c1OC)-c1ccc(OC)c(=O)cc1[C@@H](NC(=O)c1ccccc1)CC2 | 4.24 |  |  | 
7 | COc1cc2c(c(OC)c1OC)-c1ccc(SC)c(=O)cc1[C@@H](N)CC2 | 3.75 | 69 | 177 | 
8 | COc1cc2c(c(OC)c1OC)-c1ccc(SC)c(=O)cc1[C@@H](NC(=O)NCCCl)CC2 | 4.93 |  |  | 
9 | COc1cc2c(c(OC)c1OC)-c1ccc(OC)c(=O)cc1[C@@H](NC(=O)CCl)CC2 | 5.54 |  |  | 
10 | COc1cc2c(c(OC)c1OC)-c1ccc(OC)c(=O)cc1[C@@H](NC(=O)c1ccc([N+](=O)[O-])cc1)CC2 | 4.41 | 20 | 25 | 
11 | COc1cc2c(c(OC)c1OC)-c1ccc(SC)c(=O)cc1[C@@H](NO[C@H]1O[C@@H](CO)[C@H](O)[C@@H](O)[C@@H]1O)CC2 | 3.71 |  |  | logP (physchem): 1.25
12 | COc1cc2c(c(OC)c1OC)-c1ccc(SC)c(=O)cc1[C@@H](NO[C@H]1O[C@@H](COC(C)=O)[C@H](OC(C)=O)[C@@H](OC(C)=O)[C@@H]1OC(C)=O)CC2 | 3.81 |  |  | logP (physchem): 4.61
13 | COc1cc2c(c(OC)c1OC)-c1ccc(SC)c(=O)cc1[C@@H](NO[C@H]1OC[C@@H](O)[C@@H](O)[C@@H]1O)CC2 | 3.98 | 102 | 251 | logP (physchem): 1.4
14 | COc1cc2c(c(OC)c1OC)-c1ccc(SC)c(=O)cc1[C@@H](NC(=O)CCl)CC2 | 5.65 |  |  | 
15 | COc1c(CO)c2c(c(OC)c1OC)-c1ccc(OC)c(=O)cc1[C@@H](NC(C)=O)CC2 | 3.4 |  |  | logP (physchem): 4.58
16 | COc1cc2c(c(OC)c1OC)-c1ccc(SC)c(=O)cc1[C@@H](NC(=O)CO)CC2 | 5.66 |  |  | 
17 | COc1cc2c(c(OC)c1OC)-c1ccc(OC)c(=O)cc1[C@@H](NC(=O)C(F)(F)F)CC2 | 5.73 | 0.8 | 1.9 | 
18 | COC(=O)C(N)CCCC/N=c1\ccc2c(cc1O)[C@@H](NC(C)=O)CCc1cc(OC)c(OC)c(OC)c1-2 (some centres undefined) | 3 |  |  | 
19 | COc1cc2c(c(OC)c1OC)-c1ccc(OC)c(=O)cc1[C@@H](NC=O)CC2 | 5.16 | 2.7 | 5 | 
20 | COc1cc2c(c(OC)c1OC)-c1cc/c(=N\Cc3ccccc3)c(O)cc1[C@@H](NC(C)=O)CC2 | 4.28 | 25.1 | 41 | 
21 | COc1cc2c(c(OC)c1OC)-c1ccc(OC)c(=O)cc1[C@@H](NC(=O)CF)CC2 | 5.69 |  |  | 
22 | COc1cc2c(c(OC)c1OC)-c1ccc(SCc3ccccc3)c(=O)cc1[C@@H](NC(C)=O)CC2 | 4.22 |  |  | 
23 | COc1cc2c(c(OC)c1OC)-c1ccc(OC)c(=O)cc1[C@@H](N(C)C)CC2 | 4.21 |  |  | 
24 | CNc1ccc2c(cc1=O)[C@@H](NC(C)=O)CCc1cc(OC)c(OC)c(OC)c1-2 | 5.72 | 0.8 | 1.4 | 
25 | COc1cc2c(c(OC)c1OC)-c1ccc(OC)c(=O)cc1[C@@H](NC(C)=O)CC2 [COLCHICINE] | 5.46 | 1.4 | 1.6 | ILS at 0.06 mg/kg (Mus musculus [15]): 27%; ILS at 0.06 mg/kg (Mus musculus [16]): 24%; ILS at 0.12 mg/kg (Mus musculus [17]): 33%; ILS at 0.12 mg/kg (Mus musculus [18]): 40%; ILS at 0.25 mg/kg (Mus musculus [19]): 46%; ILS at 0.25 mg/kg (Mus musculus [20]): 58%; ILS at 0.5 mg/kg (Mus musculus [21]): 78%; ILS at 0.5 mg/kg (Mus musculus [22]): 89%
26 | COc1cc2c(c(OC)c1OC)-c1ccc(OC)c(=O)cc1[C@@H](N)CC2 [DEACETYLCOLCHICINE] | 3.71 |  |  | 
27 | CN[C@H]1CCc2cc(OC)c(OC)c(OC)c2-c2ccc(OC)c(=O)cc21 [DEMECOLCINE] | 3.63 |  |  | 
28 | COc1cc2c(c(OC)c1OC)-c1ccc(SC)c(=O)cc1[C@@H](NC(C)=O)CC2 [THIOCOLCHICINE] | 5.62 | 1 | 1 | 
